# Data published in publication PMC4303209, “A novel phosphatidylinositol 3-kinase (PI3K) inhibitor directs a potent FOXO-dependent, p53-independent cell cycle arrest phenotype characterized by the differential induction of a subset of FOXO-regulated genes” (Breast Cancer Research : BCR, 2014).
# Test system: MCF-7 breast cancer cells
# Experiment: Microarray gene expression analysis (Agilent whole human genome 4 x 44K; compound vs DMSO, LIMMA log2 fold change)
# Format: cell-based
# Conditions: cell cycle genes
smiles,measurement,setting,value
Cn1ncc2c(N3CCOCC3)nc(-c3cccc(O)c3)nc21 [ETP-45658],STAT5A log2FC,Gene 6776,0.569
same,STAT5B log2FC,Gene 6777,0.093
same,AURKA log2FC,Gene 6790,0.163
same,STK10 log2FC,Gene 6793,-0.333
same,AURKC log2FC,Gene 6795,0.077
same,SUV39H1 log2FC,Gene 6839,-0.686
same,TACC1 log2FC,Gene 6867,0.112
same,ADAM17 log2FC,Gene 6868,0.578
same,TAF1 log2FC,Gene 6872,0.237
same,TAL1 log2FC,Gene 6886,-0.533
same,TBX3 log2FC,Gene 6926,-0.702
same,TCF3 log2FC,Gene 6929,-0.071
same,DYNLT3 log2FC,Gene 6990,-0.257
same,DYNLT1 log2FC,Gene 6993,0.039
same,TERF1 log2FC,Gene 7013,0.607
same,TERF2 log2FC,Gene 7014,-0.131
same,TFAP4 log2FC,Gene 7023,0.268
same,NR2F2 log2FC,Gene 7026,0.124
same,TFDP1 log2FC,Gene 7027,-0.484
same,TFDP2 log2FC,Gene 7029,0.532
same,TGFB1 log2FC,Gene 7040,-0.640
same,THBS1 log2FC,Gene 7057,-0.941
same,TNF log2FC,Gene 7124,-1.647
same,TNFAIP3 log2FC,Gene 7128,-0.659
same,TOP2A log2FC,Gene 7153,0.987
same,TOP2B log2FC,Gene 7155,1.103
same,TOP3A log2FC,Gene 7156,-0.181
same,TP53 log2FC,Gene 7157,-0.193
same,TP53BP2 log2FC,Gene 7159,0.300
same,TPR log2FC,Gene 7175,0.896
same,TSC1 log2FC,Gene 7248,0.395
same,TSC2 log2FC,Gene 7249,-0.413
same,TSG101 log2FC,Gene 7251,0.390
same,TTK log2FC,Gene 7272,1.754
same,TUBG1 log2FC,Gene 7283,-0.283
same,UBA52 log2FC,Gene 7311,0.322
same,UBB log2FC,Gene 7314,0.069
same,UBC log2FC,Gene 7316,0.294
same,UBE2B log2FC,Gene 7320,0.582
same,UBE2D1 log2FC,Gene 7321,0.498
same,UBE2E1 log2FC,Gene 7324,0.262
same,UBE2I log2FC,Gene 7329,-0.395
same,WEE1 log2FC,Gene 7465,-0.074
same,WNT5A log2FC,Gene 7474,0.075
same,WNT10B log2FC,Gene 7480,-0.451
same,WNT9A log2FC,Gene 7483,0.073
same,XPC log2FC,Gene 7508,0.604
same,XRCC2 log2FC,Gene 7516,-0.596
same,YWHAG log2FC,Gene 7532,-0.492
same,ZNF16 log2FC,Gene 7564,0.343
same,ZBTB17 log2FC,Gene 7709,0.065
same,PTP4A1 log2FC,Gene 7803,-0.345
same,EVI5 log2FC,Gene 7813,0.609
same,ALMS1 log2FC,Gene 7840,0.617
same,NR4A3 log2FC,Gene 8013,0.735
same,NUP214 log2FC,Gene 8021,-0.742
same,FOSL1 log2FC,Gene 8061,-2.502
same,CUL5 log2FC,Gene 8065,-0.432
same,YEATS4 log2FC,Gene 8089,1.304
same,HMGA2 log2FC,Gene 8091,-1.656
same,CHAF1B log2FC,Gene 8208,0.083
same,CLTCL1 log2FC,Gene 8218,-0.209
same,USP9X log2FC,Gene 8239,0.632
same,SMC1A log2FC,Gene 8243,0.142
same,CDC7 log2FC,Gene 8317,0.500
same,RAD54L log2FC,Gene 8438,-0.289
same,CUL4B log2FC,Gene 8450,0.695
same,CUL4A log2FC,Gene 8451,0.552
same,CUL1 log2FC,Gene 8454,0.479
same,KLF11 log2FC,Gene 8462,1.337
same,OFD1 log2FC,Gene 8481,1.019
same,PKP4 log2FC,Gene 8502,0.170
same,GAS7 log2FC,Gene 8522,-0.364
same,DGKZ log2FC,Gene 8525,-0.549
same,CAMK1 log2FC,Gene 8536,-0.088
same,CDC14B log2FC,Gene 8555,0.259
same,CDK10 log2FC,Gene 8558,0.167
same,MADD log2FC,Gene 8567,0.423
same,DYNLL1 log2FC,Gene 8655,-0.944
same,TNKS log2FC,Gene 8658,0.686
same,BECN1 log2FC,Gene 8678,0.486
same,CDC23 log2FC,Gene 8697,0.451
same,CRADD log2FC,Gene 8738,-0.101
same,CCNK log2FC,Gene 8812,-0.603
same,BANF1 log2FC,Gene 8815,-0.450
same,CDK5R1 log2FC,Gene 8851,-0.154
same,IER3 log2FC,Gene 8870,-1.789
same,SPHK1 log2FC,Gene 8877,-0.334
same,CDC16 log2FC,Gene 8881,0.890
same,CCNA1 log2FC,Gene 8900,0.079
same,TIMELESS log2FC,Gene 8914,0.236
same,PHOX2B log2FC,Gene 8929,-0.044
same,MBD4 log2FC,Gene 8930,0.489
same,BTRC log2FC,Gene 8945,0.108
same,WASL log2FC,Gene 8976,0.239
same,RNF8 log2FC,Gene 9025,-0.050
same,PRC1 log2FC,Gene 9055,0.420
same,USP2 log2FC,Gene 9099,-0.057
same,USP8 log2FC,Gene 9101,0.690
same,SMC3 log2FC,Gene 9126,1.332
same,EXO1 log2FC,Gene 9156,0.057
same,ARHGEF2 log2FC,Gene 9181,-0.734
same,ZW10 log2FC,Gene 9183,0.473
same,BUB3 log2FC,Gene 9184,0.588
same,NOLC1 log2FC,Gene 9221,-0.505
same,CCPG1 log2FC,Gene 9236,0.930
same,MAPKAPK2 log2FC,Gene 9261,-0.374
same,PIWIL1 log2FC,Gene 9271,0.057
same,RECQL5 log2FC,Gene 9400,0.154
same,ROCK2 log2FC,Gene 9475,0.291
same,PSMF1 log2FC,Gene 9491,-0.383
same,VPS4B log2FC,Gene 9525,0.614
same,CLOCK log2FC,Gene 9575,0.069
same,MAD2L1BP log2FC,Gene 9587,-0.350
same,ARHGEF10 log2FC,Gene 9639,0.265
same,MDC1 log2FC,Gene 9656,-0.639
same,CEP135 log2FC,Gene 9662,0.532
same,KIAA0430 log2FC,Gene 9665,0.757
same,CROCC log2FC,Gene 9696,-0.051
same,ESPL1 log2FC,Gene 9700,0.453
same,CEP57 log2FC,Gene 9702,1.199
same,UTP14C log2FC,Gene 9724,0.374
same,KNTC1 log2FC,Gene 9735,0.636
same,RASSF2 log2FC,Gene 9770,0.675
same,CKAP5 log2FC,Gene 9793,0.439
same,SFI1 log2FC,Gene 9814,-0.103
same,RB1CC1 log2FC,Gene 9821,1.457
same,MELK log2FC,Gene 9833,0.433
same,GINS1 log2FC,Gene 9837,-0.673
same,MAGI2 log2FC,Gene 9863,0.425
same,TLK1 log2FC,Gene 9874,0.392
same,POM121 log2FC,Gene 9883,-0.667
same,KLHL21 log2FC,Gene 9903,0.769
same,DCLRE1A log2FC,Gene 9937,0.710
same,USP3 log2FC,Gene 9960,0.530
same,THOC1 log2FC,Gene 9984,0.606
same,DMTF1 log2FC,Gene 9988,0.604
same,CASP8AP2 log2FC,Gene 9994,0.813
same,PDCD6IP log2FC,Gene 10015,0.516
same,BCL2L11 log2FC,Gene 10018,0.145
same,CHAF1A log2FC,Gene 10036,-0.375
same,PARP3 log2FC,Gene 10039,0.325
same,TOM1L1 log2FC,Gene 10040,0.759
same,SMC4 log2FC,Gene 10051,0.902
same,ACTR2 log2FC,Gene 10097,-0.298
same,RAD50 log2FC,Gene 10111,0.524
same,KIF20A log2FC,Gene 10112,0.476
same,OPTN log2FC,Gene 10133,0.838
same,AKAP9 log2FC,Gene 10142,1.382
same,PSME3 log2FC,Gene 10197,-1.314
same,MPHOSPH9 log2FC,Gene 10198,0.470
same,MPHOSPH6 log2FC,Gene 10200,-0.666
same,MAEA log2FC,Gene 10296,-0.219
same,PAK4 log2FC,Gene 10298,-0.601
same,NPM2 log2FC,Gene 10361,-0.152
same,HMG20B log2FC,Gene 10362,0.276
same,CITED2 log2FC,Gene 10370,2.261
